Structures can show the parent of a compound that is named as a salt.
Tests used:
[1] = tested on: MCF-7 cells (cell line of breast cancer); assay: MTT cytotoxicity assay in MCF-7 cell line; type: cell-based; settings: MCF-7, at 1 mg/ml
Experimental: The direct effect of curcumin and doxorubicin on the viability of cultured cells was assessed in vitro using the MCF-7 cells (cell line of breast cancer). […] Fresh cell medium was then prepared with test compounds in appropriate dilutions (equivalent to their concentrations as determined by HPLC). Cell growth after 48 h was assayed by MTT assay [3-(4,5-Dimethylthiazol-2-yl)-2,5-diphenyltetrazolium bromide, Sigma-Aldrich] and was evaluated by measuring the absorbance at 540 nm after 3 h of incubation in a medium containing 0.5 mg/ml MTT (Sunrise™ absorbance plate reader, TECAN). […] FIG. 13C presents dose response behavior of DOX-loaded and unloaded NPs vs. solutions at various concentrations after 24-h and 48-h incubation.

melanoma B16F0 cells = assay: B16F0 melanoma tumor model in mice; settings: day 18 of treatment, 0.5 mg/kg s.c. twice a week
Experimental: Female C57BL/6 mice (5-6 weeks old, 14-18 g) were obtained from Harlan Laboratories Ltd (Jerusalem, Israel). Mice were housed under humidity- and temperature-controlled conditions, and the light/dark cycle was set at 12-h intervals.
B16F0 melanoma cells were maintained in RPMI 1640 medium supplemented with 10% bovine serum and 200 μM L-glutamine, 10 units/mL penicillin, and 10 μg/mL streptomycin (Biological Industries, Beth Ha'Emek, Israel). The cells were kept at 37° C. in a 5% CO2 humidified atmosphere.
The mice were inoculated with melanoma B16F0 cells (1×10^6) subcutaneously in the right flank of the mice. After tumors had been visualized a week later, the mice were weighed and measured for tumor size (244±213 mm^3), and were randomly sorted into three groups. […] Tumor volumes and mouse body weights were measured routinely before each treatment. Measurement of tumor size was performed with a caliper in two dimensions, and individual tumor volumes (V) were calculated by the formula: V=[length×(width)^2]×π/6.
The statistical differences between the therapeutic effects of different treatments on tumor growth were determined by two-tailed Student's test. […]

[2] = topically applied, eye drops; cited from earlier work
[3] = Dynamic dialysis of chloramphenicol, apparent dialysis bag permeability constant; type: physicochemical; settings: dialysis bag 10K MWCO, NaCl 0.9% w/v
Experimental: The amount of drug released from the NPs was determined by a dynamic dialysis technique monitoring the drug concentration in the receiver solution (i.e., outer solution surrounding a dialysis bag). The method is based on the assumption that drug is first released from the NPs into the donor solution (i.e., the dissolution medium inside the dialysis bag). Subsequently, the drug can diffuse through the dialysis bag from the donor to the receiver.
A sample of 3 ml of the NP dispersion (1:1 diluted with saline) was introduced into a dialysis bag (SnakeSkin Dialysis Tubing, 10K MWCO, 22 mm, Thermo Fisher Scientific, Rockford, USA). The sample was dialyzed against 60 ml of saline solution (NaCl solution, 0.9%, w/v) for 7 hours. The receiver solution was agitated by magnetic stirring throughout the experimental procedure. Samples of 200 μl were withdrawn from the receiver solution at predetermined time intervals and their drug concentrations were measured by HPLC.
The apparent dialysis bag permeability constant (k′) was calculated according to the method described in ‘Materials and Methods’ section 2.6. […]

| SMILES | cytotoxicity [1] | survival (melanoma B16F0 cells) [%] | bioavailability [2] | half-life [2] [h] | apparent permeability constant (k′) [3] [h⁻¹] |
| --- | --- | --- | --- | --- | --- |
| COc1cccc2c1C(=O)c1c(O)c3c(c(O)c1C2=O)C[C@@](O)(C(=O)CO)C[C@@H]3O[C@H]1C[C@H](N)[C@H](O)[C@H](C)O1 [DOX-HCl solution, doxorubicin] | highly cytotoxic | 58 |  |  |  |
| O=C(N[C@H](CO)[C@H](O)c1ccc([N+](=O)[O-])cc1)C(Cl)Cl [chloramphenicol] |  |  | 1-10% | 1.5 to 5 | 1.207 ± 0.018 |
